Several values for one entry are separate records, joined by “and”; a condition that tells them apart may be missing. Identical values can stand only once. Activity calls are given as the source filed them.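 How the source made its calls: active means compounds giving half or more protection of infected cells from virus-caused growth loss, again on retest; inactive means the rest.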
Test system: CEM cells HIV-1 protection, formazan growth assay
Assay: NCI AIDS Antiviral Assay
Conditions: for IC50: measured here: growth of uninfected CEM cells
Summary of the method: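 Soluble formazan readout of cell growth; CEM cells ± HIV-1; 5 drug concs. ≥50% protection → retest; ≥50% again = moderately active; reproducible 100% = confirmed active.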

Row | SMILES | EC50 | IC50 | outcome
1 | CCOC(=O)C1(C)CCCC1N (configuration not stated) | > 200 µM | > 200 µM | 
2 | CCCCCCC(CCl)c1sc(-c2csc(CCNC(=O)OC(C)(C)C)n2)nc1C(=O)OC (configuration not stated) | > 200 µM | > 200 µM | 
3 | COc1ccccc1N/C(=C\C(=O)C(=O)NC12CC3CC(CC(C3)C1)C2)c1ccccc1 | > 200 µM | > 200 µM | 
4 | CC(=O)Oc1cc(C)cc2ccc(-c3ccc4cc(C)cc(OC(C)=O)c4c3OC(C)=O)c(OC(C)=O)c12 | > 200 µM | 28.8 µM | 
5 | Cc1cc(NS(=O)(=O)c2ccc(Nc3c4ccccc4nc4ccc(C(=O)Nc5ccc(S(=O)(=O)N=C(N)N)cc5)cc34)cc2)no1 | > 200 µM | 110 µM | 
6 | CC1CN=C(Nc2ccccc2)S1 (configuration not stated) | > 200 µM | > 200 µM | 
7 | N#Cc1n[nH]n(C2CCCCC2)c1=O | > 200 µM | > 200 µM | 
8 | C=C(C)C1CC(=O)C(C)=C(O)C1 (configuration not stated) |  |  | inactive
9 | O=C(Nc1ccc(/C=C\c2ccc(NC(=O)c3ccc4ccccc4c3O)cc2S(=O)(=O)O)c(S(=O)(=O)O)c1)c1ccc2ccccc2c1O | 126 µM | > 200 µM | 
10 | COC(=O)CC[C@@H](C)C1CCC2(C)c3ccc4c(c3C(=O)C[C@]12C)CC[C@H](OC(C)=O)C4(C)C (some centres not stated) | > 100 µM | > 100 µM | 
11 | COc1cc(N(CCC#N)CCC#N)ccc1/C(N=Nc1ccc(C)cc1)=N/NC(=O)c1cc(Br)ccc1O | > 200 µM | 12.6 µM | 
12 | CCOC(=O)C(C)NC(=O)C(C)NC(=O)C(C)NC(=O)C(C)NC(=O)C(C)NC(=O)OCc1ccccc1 (configuration not stated) | > 200 µM | > 200 µM | 
13 | O=C(Nc1ccc(/C=C/c2ccc(NC(=O)c3cc(S(=O)(=O)O)ccc3O)cc2S(=O)(=O)O)c(S(=O)(=O)O)c1)c1cc(S(=O)(=O)O)ccc1O | 93.3 µM | > 200 µM | 
14 | CC(C)CC1CC2C(=O)N(c3ccccc3)C(=O)C2c2[nH]c3ccccc3c21 (configuration not stated) |  |  | inactive
15 | O=C(Nc1cccc(C(F)(F)F)c1)C(=O)C(C(=O)c1ccc(Cl)c(Cl)c1)C1OC(=O)c2ccccc21 (configuration not stated) | > 158 µM | 13.8 µM | 
16 | N#CCCN(CCC#N)c1ccc(/C=C(/NC(=O)c2cc([N+](=O)[O-])ccc2Cl)C(=O)N=[N+]=[N-])cc1 | > 20.4 µM | > 20.4 µM | 
17 | CCOC(=O)c1nc2ccccc2nc1Oc1ccc(OC)cc1 | > 200 µM | > 200 µM | 
18 | CC(=O)OC1C[C@@]2(C)C(CC[C@@H]2C(C)=O)[C@@H]2CC=C3C[C@@H](O)CC[C@]3(C)C12 (some centres not stated) |  |  | inactive
19 | CCOC(=O)C(C#N)C(C)CC (configuration not stated) | > 200 µM | > 200 µM | 
20 | S=C1NC2(CCCCC2)N2C(=S)NC3(CCCCC3)N12 |  |  | inactive
21 | Cc1sc(N)c(S(=O)(=O)c2ccccc2)c1C | 166 µM | 195 µM | 
22 | COC(=O)/C=C\C(C#N)(C#N)N=Cc1cccs1 | > 2 µM | 0.389 µM | 

Row | SMILES | EC50 | IC50 | outcome
23 | CCOP(=O)(OCC)/C(C#N)=C/c1ccc(CO)o1 | > 871 µM | 178 µM | 
24 | OCC1(C(F)(F)F)OC(n2cncn2)CC1O (configuration not stated) | > 200 µM | > 200 µM | 
25 | O=NC1C(Cl)C2CC1C1COCC21 (configuration not stated) | > 1230 µM | > 1230 µM | 
26 | C/C=N/NC1=Nc2ccc(Cl)cc2C(c2ccccc2)=NN1C | > 200 µM | 33.9 µM | 
27 | CCC(C)[N-]c1cccc[n+]1[O-].CCC(C)[N-]c1cccc[n+]1[O-].[Cu+2] (configuration not stated) | > 200 µM | 83.2 µM | 
28 | COc1c(OC2OC(CO)C(O)C(O)C2O)cc2c(c1OC)-c1ccc(SC)c(=O)cc1[C@@H](NC(C)=O)CC2 (some centres not stated) |  |  | inactive
29 | CCOC(=O)c1noc(Oc2ccc(Cl)cc2Cl)n1 | > 44.7 µM | 25.1 µM | 
30 | O=C1c2c(Br)sc(Br)c2C(NC(=O)C(F)(F)F)C1O (configuration not stated) | > 200 µM | 35.5 µM | 
31 | COc1ccc2c(c1)C=CC1OC(C(C)=O)(C(C)=O)C(C=O)=CN21 (configuration not stated) | > 79.4 µM | 38.9 µM | 
32 | COC(=O)[C@@H]1[C@H]2C[C@@H]3c4[nH]c5ccccc5c4CCN3C[C@@H]2CC[C@@H]1O |  |  | inactive
33 | Cc1cc(=O)oc2c3c(ccc12)OC(c1ccc(Br)cc1)CC3=O (configuration not stated) | > 200 µM | 46.8 µM | 
34 | CCNC(=O)CCN(C(=O)O)S(=O)(=O)c1ccc(NC(=O)c2ccccc2)cc1 | > 603 µM | > 603 µM | 
35 | NCCSc1nc2ccccc2c(=O)n1-c1ccccc1 | > 200 µM | 30.2 µM | 
36 | CC(=O)Nc1c(S(=O)(=O)c2ccccc2)c(C)c(C)n1Cc1ccccc1 | > 200 µM | 132 µM | 
37 | Nc1c(C(=O)N/N=C/c2ccc(Cl)cc2)sc(=S)n1-c1ccccc1 | > 3.72 µM | > 3.72 µM | 
38 | COC(=O)c1cc(=O)c2scc(C)[n+]2[nH]1 | > 955 µM | > 955 µM | 
39 | CO[C@@]12[C@@H]3N[C@@H]3CN1C1=C(C(=O)C(N(C)c3ccc(O)cc3)=C(C)C1=O)[C@@H]2COC(N)=O | > 200 µM | 1.35 µM | 
40 | O=C1CC[C@@H](S(=O)(=O)c2ccccc2)[C@H](/C=C/c2ccccc2)O1 |  |  | inactive
41 | Nc1nc(Cl)cc(Oc2ccc(Cl)cc2)n1 | > 200 µM | > 200 µM | 
42 | Cc1cc(C)nc(NS(=O)(=O)c2ccc(Nc3c4ccccc4nc4ccc(C(=O)Nc5ccc(S(N)(=O)=O)cc5)cc34)cc2)n1 | > 200 µM | 89.1 µM | 
43 | COc1ccc(/C=C(/C(=O)c2ccccc2)c2ccccc2)cc1 | > 8.71 µM | > 8.71 µM | 
44 | O=C(O)CCC(=O)Nc1ccccc1 | > 200 µM | > 200 µM | 

Row | SMILES | EC50 | IC50 | outcome
45 | COc1cccc2c1C1(O)C2CCCC12OCCCO2 (configuration not stated) | > 200 µM | > 200 µM | 
46 | CCN(CC)CCOc1ccccc1/C=C/c1noc2ccccc12 | > 200 µM | 29.5 µM | 
47 | Oc1ccc(-c2nn3c(CCCCCCCCc4nnc5sc(-c6ccc(O)cc6)nn45)nnc3s2)cc1 | 145 µM | > 200 µM | 
48 | O=C1NC(N/N=C\C(O)C(O)C(O)C(O)CO)=N/C1=C/c1ccccc1 (configuration not stated) | > 200 µM | 105 µM and 31.6 µM and > 200 µM | 
49 | C/C=C/C#CC#CC(O)C(O)/C=C/CCCO (configuration not stated) | > 77.6 µM | > 77.6 µM | 
50 | N#Cc1cccc2c1Sc1ccccc1N2 | > 200 µM | 12 µM | 
51 | CCN(CC)C(c1ccc(N(C)C)cc1)C(c1ccc(N(C)C)cc1)N(CC)CC (configuration not stated) | > 158 µM | 42.7 µM | 
52 | C/C(=N/NC(=S)N1CCCCC1)c1cccc(/C(C)=N\NC(=S)N2CCCCC2)n1 | > 200 µM | 13.2 µM | 
53 | CC(C)(CN1CCCCC1)C(=O)/C=C/c1ccc(Br)cc1 | > 129 µM | 1.7 µM | 
54 | CCOC(=O)C1OC12CCC(C(C)(C)C)CC2 (configuration not stated) | > 200 µM | 191 µM | 
55 | CCCNC(=O)OCCCOC(=O)/C=C(\C(=O)OCCCOC(=O)NCCC)N1[C@H](C)Cc2c(-c3cc(-c4cc(-c5c(O)cc(O)c6c5C[C@@H](C)N[C@@H]6C)c5cc(C)cc(OC)c5c4O)c(O)c4c(OC)cc(C)cc34)c(O)cc(O)c2[C@H]1C | > 25.1 µM | > 25.1 µM | 
56 | O=c1[nH]cnc2cc3c(cc12)nc1n3CCOC1 | > 52.5 µM | > 52.5 µM | 
57 | COc1ccc(C2=C(N)c3ncccc3C2=O)cc1 | > 200 µM | 132 µM | 
58 | CCCCCCCCCCCCCOC(=O)CC(C(=O)OCCCCCCCCCCCCC)S(=O)(=O)O (configuration not stated) | > 200 µM | 102 µM | 
59 | CCCCSC1=NCCCS1 | > 275 µM | > 275 µM | 
60 | O=S(=O)(O)c1ccc(O)c(N=Nc2ccc(S(=O)(=O)c3ccc(N=Nc4cc(S(=O)(=O)O)ccc4O)cc3)cc2)c1 | > 100 µM | > 100 µM | 
61 | Cc1ccc(OC(=O)N2C/C(=C\c3ccccc3)C(=O)/C(=C/c3ccccc3)C2)cc1 |  |  | inactive
62 | CCOC(=O)c1sc(C(=O)O)cc1-c1cccs1 | 234 µM | 501 µM | 
63 | Brc1ccccc1CCc1ncc[nH]1 | > 575 µM | 234 µM | 
64 | O=[N+]([O-])C(=C1NCCN1)/C(Cl)=C(\Cl)Br | > 200 µM | 16.6 µM | 
65 | CO/C(=N\N=C(/C)C(F)(F)F)c1ccncc1 | > 200 µM | > 200 µM | 
66 | CCOC(=O)CCc1ccc(NC(=O)/C=C/c2ccc([N+](=O)[O-])o2)cc1 | > 200 µM | 0.372 µM | 

Row | SMILES | EC50 | IC50 | outcome
67 | Cc1cc(-c2cc(C(C)(C)C)c(O)c(C(C)(C)C)c2)c(C)cc1-c1cc(C(C)(C)C)c(O)c(C(C)(C)C)c1 | > 100 µM | > 100 µM | 
68 | CC(C)(C)NC(=O)CCC(CC(=O)NC(C)(C)C)S(=O)(=O)O (configuration not stated) | > 200 µM | > 200 µM | 
69 | CC(=O)O[C@@H]1C2CCC3C(CC[C@@]4(C)C3CC[C@@H]4C(C)N(C)C)[C@@]2(C)C[C@H](O)[C@@H]1NC(=O)c1ccccc1 (some centres not stated) | > 1.38 µM | > 1.38 µM | 
70 | CN1C(c2ccccc2)CC(=NOCc2ccccc2)CC1c1ccccc1 (configuration not stated) | > 200 µM | 8.71 µM | 
71 | O=c1[nH]c2ccccc2c(O)c1Cc1c(O)c2ccccc2[nH]c1=O | > 25.1 µM | > 25.1 µM | 
72 | CC(=O)c1sc2n(C)c(=O)c3ccccc3[n+]2c1C | > 200 µM | > 200 µM | 
73 | C=CCN1c2ccccc2Sc2cnccc21 | > 191 µM | 33.1 µM | 
74 | COc1ccc(-c2ccccc2)c2[nH]c3c(c12)CCNC3=O |  |  | inactive
75 | O=C(N=S(NC(=O)c1ccccc1)C(Cl)(Cl)Cl)c1ccccc1 (configuration not stated) | > 44.7 µM | 16.6 µM | 
76 | COc1ccccc1N1CCN(S(=O)(=O)c2ccc(Cl)cc2)C1=N | > 200 µM | 77.6 µM | 
77 | CC(=O)N1C(C(=O)NNc2ccccc2)CSC1c1ccccc1 (configuration not stated) | > 200 µM | 12.3 µM | 
78 | COc1ccc2c(c1)CCC1=C/C(=N\NC(N)=O)CCC12C (configuration not stated) | > 63.1 µM | > 63.1 µM | 
79 | O=S1Nc2c(Cl)cc(Cl)c3c(Cl)cc(Cl)c(c23)N1 |  |  | inactive
80 | CC1=NN(c2ccccc2)C(=O)C1N=Nc1ccc(S(=O)(=O)Nc2ccccn2)cc1 (configuration not stated) |  |  | inactive
81 | O=P1(Nc2ccccc2)OCCCN1Cc1ccc(Cl)c(Cl)c1 (configuration not stated) | > 200 µM | 53.7 µM | 
82 | c1ccc2c(c1)CN1CCCC1CN2 (configuration not stated) | > 200 µM | > 200 µM | 
83 | Nc1nc(=O)n(C2OC(CO)CC2F)cc1F (configuration not stated) | 55 µM | 575 µM | 
84 | Nc1ccc(S(=O)(=O)Cc2ccc(C(=O)O)cc2)cc1 | > 324 µM | > 324 µM | 
85 | Cc1cc(C)c(SSc2c(C)cc(C)cc2C)c(C)c1 | > 200 µM | 28.2 µM | 
86 | COc1ccc(CCNC(=O)Cc2cc(OC)c(OC)cc2Br)cc1OC | > 81.3 µM | > 81.3 µM | 
87 | O=C(O)CCCSC(=O)Nc1ccc(N=Nc2ccccc2)cc1 |  |  | inactive
